# Results published in patent US20050239873A1 (priority 1999, published 2005).
# Key:
# [1] = tested on: TABX2S cells (over-expressing Bcl-xL); experiment: cells
# From the text: Briefly, a DNA fragment encoding the full-length mouse BCl-xL cDNA was isolated from the plasmid PBS.BCL-xL (Tzung et al., Am. J. Path. 150:1985-1995, 1997, incorporated herein by reference in its entirety) by digestion with the restriction endonuclease EcoRI. This EcoRI fragment was cloned into the EcoRI site of the mammalian expression vector pSFFV (Fuhlbrigge et al., Proc. Nat. Acad. Sci. USA 85:5649-5653, 1988) in both sense and antisense orientations, to form expression plasmids pSFFV.Bcl-xL(sense) or pSFFV.Bcl-xL(antisense), respectively. The tumorigenic murine hepatocyte cell line TAMH was transfected by lipofection (Lipofectamine, Life Technologies, Rockville, Md., according to the manufacturer's recommendations) with the plasmids pSFFV.neo (the control), pSFFV.Bcl-xL(sense) or pSFFV.Bcl-xL(antisense). […] Transfectants were selected for the acquisition of neomycin resistance by growing cells in the presence of 750 μg/ml of G418. Bulk transfectants were cloned by limiting dilution and individual clones were screened by immunoblot analysis to determine the level of BCl-xL protein expression as described below.
# Selected transfectants were then tested for whole cell sensitivity to several apoptotic agents. Transfected cells were cultured to reach approximately 80% confluency prior to plating an equal number of cells from selected clones on 12-well tissue culture plates. The transplanted cells were treated with the following apoptotic agents: 5 μM doxorubicin for 48 hours; 5 μM cisplatin for 48 hours; or with 200 U/ml tumor necrosis factor (TNF) plus 1 μg/ml actinomycin D for 18 hours. Cell viability was determined by trypan blue dye exclusion. The percentage of viable cells was calculated by the number of viable cells (treated with a particular apoptogenic agent) divided by the number in the control group (untreated).
# TABX2S cells and TABX1A cells were also examined for the effects of various mitochondrial inhibitors. […] Azide was diluted from an aqueous stock solution. […] Controls received an equivalent concentration of diluent. At various time points after drug treatment, cells were trypsinized, and cell viability was determined by trypan blue dye exclusion. The number of viable cells were counted and normalized to control group (i.e., % control=number of viable cells (treated group)/number of viable cells (control group)×100).
# [2] = tested on: RPMI-8226 myeloma cell line; experiment: O2 consumption with a Clark electrode; format: cell-based, human
# Protocol: Respiratory rates of both cell lines were maintained through repeated additions of 10 μM 2-OMeA, to a final concentration of 90 μM. […] Real-time glucose consumption and lactate production by TAMH cells grown on microcarrier beads was monitored using a novel microsequential injection-lab on valve (μSI-LOV) system (Schulz et al., Analyst 127:1293-1298, 2002). […] Since 2-OMeA has no effect on cellular respiration at these concentrations, 2-OMeA induced aerobic glycolysis in TAMH cells. The glycolytic response to 2-OMeA was proportional to cellular BCl-xL protein expression.
# RPMI-8226 = experiment: Propidium iodide exclusion / flow cytometry cytotoxicity; format: cell-based, human; conditions: for mode of induced cell death: annexin V, sub-G1 DNA content, mitochondrial membrane potential
# Protocol: Cell survival was assayed by exclusion of propidium iodide (PI; 10 μg/ml) by unfixed cells. Annexin V-FITC (Pharmingen) or 3, 3′-dihexyloxacarbocyanine iodide (DiOC6(3); Molecular Probes) staining was analyzed together with PI to discriminate early apoptotic cells. Apoptotic cells were also measured as sub-G1 events among ethanol-fixed cells stained with 10 μg/ml PI. All cell samples were analyzed using a benchtop FACSCalibur™ (Becton Dickinson, San Jose, Calif.). Flow data were analyzed using MultiCycle AV software (Phoenix Flow Systems). For intracellular pH measurements, cell pellets were washed once and resuspended in 2 ml of HEPES-buffered medium (no phenol red and no serum). Carboxy-SNARF-1-AM (Molecular Probes, 1 mM stock in DMSO, stored at −20° C.) was added to a final concentration of 10 μM, and the cells were incubated for 30 min at 37° C. Following incubation with SNARF, cells were sedimented and the pellets were held on ice. Immediately before analysis, pellets were resuspended in […] (HBSS; experimental buffer) or high-[K+] buffer containing nigericin (calibration samples).
# plasma proteins = experiment: Binding to plasma proteins (ultrafiltration); format: in vitro ADME, mouse; conditions: presence of NaF+EDTA, 1000 ng/ml
# Protocol: Solutions of 2-OMe antimycin A3 were diluted with plasma (dog or human) containing NaF+EDTA to final concentrations of 1.0 or 0.2 μg/ml. Controls were diluted with water to the same final concentrations. These preparations were incubated at 37° C. for 20 min, at which time portions were taken and placed in the sample reservoirs of Amicon Centrifree® ultrafiltration systems (Millipore Co., Bedford, Mass.). At 37° C., the filter systems were centrifuged until the reservoirs were dry. From each filtrate, portions were taken for analysis by HPLC. The amounts present were designated as “free drug” (F). The concentrations of the unfiltered solutions were also determined by triplicate analyses. This amount represented the “total drug” concentration (T). The percentage of 2-OMe antimycin A3 bound to plasma proteins was calculated by the following formula: % bound=((T−F)/T)×100
# [3] = tested on: RPMI-8226 human myeloma xenografts in NOD/SCID mice; experiment: RPMI-8226 tumor xenografts; format: in vivo, mouse
# Protocol: Six to nine-week old Nod/Les2 Scid/J mice were inoculated with 3×10^7 RPMI-8226 cells by interscapular subcutaneous injection. Mice were maintained under specific pathogen-free conditions. Palpable tumor nodules were measured in two dimensions with calipers and tumor volumes calculated in mm^3 as (length×width^2)/2. Blood samples were collected by retro-orbital bleed for human light chain measurements by ELISA with lambda-specific antibody and horseradish peroxidase detection (BD Biosciences). Animals were sacrificed by halothane inhalation, and histologic examination of tumors and internal organs was performed. All experiments were approved by the Fred Hutchison Cancer Research Center Institutional Animal Care and Use Committee.
# 2-OMe antimycin A1 was synthesized from antimycin A1 (Sigma) (comprising about 80% antimycin Ala and about 20% A1b) and dissolved in phosphate-buffered saline with 20% Cremaphor, 25% ethanol (3 mg/ml) for parenteral administration by tail vein injection in a total volume of 100 μl. Control mice received injections of Cremaphor/ethanol vehicle.
# Tissues were fixed in 10% buffered formalin, embedded in paraffin, sectioned and stained with hematoxylin and eosin. TUNEL staining was performed using 0.3 units/ml terminal deoxynucleotidyl transferase and biotinylated dATP with development by avidin-biotin peroxidase method. BCl-xL immunohistochemistry was performed using anti-Bcl-xL antibody (BD Biosciences) followed by biotinylated secondary antibody and peroxidase-labeled ABC reagent (Vector, Burlingame Calif.).
# To determine whether 2-OMeA, has anti-tumor activity in vivo, a total of 12 NOD/SCID mice in three experiments were inoculated with 3×10^7 RPMI-8226 human myeloma cells by interscapular subcutaneous injection. […] In total, six mice received three intravenous doses of 10 mg/kg 2-OMeA1 on alternate days starting on day 6. Six control mice received injections of Cremaphor/ethanol vehicle without drug.
compound,measurement,setting,value
antimycin A,survival,"[1]; 2 μg/ml, supplemented with fructose, six hours",33%
same,time until cell death readily apparent,[1]; after addition to the cell culture,≤ 2 h
same,dampening of respiration,[2]; 10 μM,> 90%
same,time of treatment at which cell death was demonstrated,RPMI-8226,≤ 8 h
same,sensitivity (PI exclusion),RPMI-8226; 5 to about 20 μg/ml,sensitive
same,mode of induced cell death,RPMI-8226,apoptosis
"CCCC[C@H]1C(=O)OC(C)[C@H](NC(=O)c2cccc(NC=O)c2OC)C(=O)O[C@@H](C)C1OC(=O)CC(C)C (stereo partly drawn) [2-OMeA3, Antimycin A3 methyl ether]",cytotoxicity for cells over-expressing Bcl-xL vs control cells,[1]; TABX2S vs TAMH.neo and TABX1A,selective cytotoxicity
same,"Protein binding, Mouse",plasma proteins,99.1%
"CCCCCC[C@H]1C(=O)O[C@H](C)[C@H](NC(=O)c2cccc(NC=O)c2OC)C(=O)O[C@@H](C)[C@@H]1OC(=O)CC(C)C [2-OMeA1, 2-methoxy antimycin A1]",time to regression of early and large nodules,[3]; 10 mg/kg intravenously,within the first week
same,tumor sections,[3]; 24 and 48 h after a single 10 mg/kg intravenous treatment,widespread apoptosis
same,average reduction of serum levels of human light chain,"[3]; after the third injection, 10 mg/kg intravenous on alternate days",87%
same,mice with tumor regression during treatment,[3]; three intravenous doses of 10 mg/kg on alternate days starting on day 6,Five of six
same,effect of delayed treatment on tumor nodules,"[3]; two tumor-bearing control mice, 10 mg/kg on days 43, 46 and 48",regression of tumor nodules
same,"Protein binding, Mouse",plasma proteins,99.0%
2-methoxy antimycin A [2-OMeA],treated mice with regression of tumor nodules,"[3]; second round, 10 mg/kg alternate days, days 26 through 31",6/6
same,respiratory rate,[2]; repeated additions of 10 μM to a final concentration of 90 μM,maintained
same,"cell killing measured as PI uptake, compared with antimycin A","RPMI-8226; 5 and 20 μg/ml, three cell lines",similar
same,mode of induced cell death,RPMI-8226,apoptosis
